Assay results reported in patent US20260062412A1, “NITROGEN-CONTAINING HETEROCYCLIC COMPOUND HAVING MYT1 INHIBITORY ACTIVITY” (CHUGAI SEIYAKU KABUSHIKI KAISHA, priority 2023, published 2026).
Where a name gives a salt, the structure may show the parent alone.

Columns and labels:
[1] = target: T1, MYT1 protein (Homo sapiens (Human), UniProt Q99640); assay: MYT1 kinase activity inhibition test (ELISA, phosphorylation of Y15 of CDK1); assay type: biochemical; conditions: phosphorylation level of Y15 of CDK1 protein caused by MYT1 protein, 60 minutes
T1 sequence (Q99640 whole entry): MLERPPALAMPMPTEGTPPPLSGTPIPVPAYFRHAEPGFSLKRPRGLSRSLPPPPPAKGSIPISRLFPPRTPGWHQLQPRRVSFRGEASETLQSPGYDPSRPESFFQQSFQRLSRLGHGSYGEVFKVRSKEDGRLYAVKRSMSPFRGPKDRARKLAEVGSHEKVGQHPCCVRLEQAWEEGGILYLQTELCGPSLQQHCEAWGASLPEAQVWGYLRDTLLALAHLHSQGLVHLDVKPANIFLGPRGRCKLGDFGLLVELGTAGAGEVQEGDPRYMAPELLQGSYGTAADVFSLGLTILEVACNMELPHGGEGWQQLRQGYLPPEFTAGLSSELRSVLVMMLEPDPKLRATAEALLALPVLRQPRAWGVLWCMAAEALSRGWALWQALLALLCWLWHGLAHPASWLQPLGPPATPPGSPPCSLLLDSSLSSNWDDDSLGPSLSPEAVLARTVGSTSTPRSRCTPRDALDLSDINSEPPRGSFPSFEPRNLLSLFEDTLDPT
Protocol: The MYT1 kinase activity inhibitory capacity of each compound was evaluated by evaluating the phosphorylation level of Y15 of CDK1 protein caused by MYT1 protein, by ELISA. The kit of CycLex Weel Kinase Assay/Inhibitor Screening Kit Ver. 3 (manufactured by MBL, CY-1172V3) was used. Using Kinase Buffer, 10 μL of 5 nM MYT1 protein (manufactured by Carna Biosciences, Inc.) was prepared. In addition, 30 μL of 83.3 μM of ATP was prepared using Kinase Buffer. In addition, 10 μL of each compound was diluted to each concentration using Kinase Buffer. 30 μL of ATP was added to the plate of the kit, and thereafter, 10 μL of each compound was added thereto. Further, 10 μL of the diluted MYT1 protein solution was added thereto, and then the mixture was mixed, which was allowed to stand at room temperature for 60 minutes. The reaction solution was removed from each well, and each well was washed using Wash Buffer. After Wash Buffer was removed, 100 μL of HRP conjugated Anti-phospho-tyrosine antibody was added to each well, which was allowed to stand at room temperature for 60 minutes. Thereafter, the reaction solution was removed from each well, and each well was washed using Wash Buffer. After Wash Buffer was removed, 100 μL of Substrate Reagent was added to each well, which was allowed to stand at room temperature for 8 minutes. Thereafter, 100 μL of Stop Solution (1 N sulfuric acid) was added to each well according to the manual. Absorbances at 450 nm and 590 nm were measured using Envision (manufactured by PerkinElmer). The phosphorylation level of CDK1 protein was evaluated for each well by subtracting the absorbance at 590 nm from the absorbance at 450 nm. The inhibition rate of each compound added at each concentration was calculated by setting the signal when the compound was not added as 100% and the signal when MYT1 protein was not added as 0%, and the calculation results of IC50 were shown in Table 4.

[2] = target: T1, MYT1 protein; assay: Test for binding to ATP binding site of MYT1 (Kinase Tracer 178 / Eu-Anti-GST antibody TR-FRET); conditions: ATP binding site of MYT1, 30 minutes at room temperature
[3] = tested on: LU65; assay: Cytotoxicity test with pemetrexed upon addition of each example compound (CellTiter-Glo); assay type: cell-based, human; conditions: combination with pemetrexed, LU65 cells, 7 days; maximum value, at the MYT1 inhibitor and pemetrexed concentrations
Protocol: LU65 (received from human tissue bank (JCRB Cell Bank)) was used in the evaluation of the present invention. LU65 is a lung cancer cell line having a truncated deletion mutation of S82* in RB1 gene (see Nature. 2019 May; 569(7757): 503-508. (Non Patent Literature 22)), in which the function of RB1 is decreased. The cell culture was carried out using RPMI-1640 (manufactured by SIGMA) containing 10% FBS (manufactured by SIGMA).
Each pemetrexed (manufactured by Tokyo Kasei Kogyo Co., Ltd.) and each example compound of each concentration were diluted using a DMSO solution, and 0.04 μL of each of series of dilution and DMSO was added to each well of cell culture plate using Echo 555 Liquid Handler (manufactured by Beckman Coulter Inc.). 1000 LU65 cells ([…]) were added to each well, which was cultured at 37° C. in a 5% CO2 incubator for 7 days. Intracellular ATP level which is a cell survival marker was measured and used in the monitoring of cell number. After culturing, 20 μL of CellTiter-Glo (registered trademark) 2.0 (manufactured by Promega) was added to each well, and the emission intensity was measured using Multimode Plate Reader En Vision (registered trademark) Xcite (manufactured by PerkinElmer). The cell survival rate under each condition was calculated by setting the value obtained by subtracting the luminescence of the cell unseeded well from the luminescence of the DMSO-added well as 100%, and calculating the proportion of a value obtained by subtracting the luminescence of the cell unseeded well from the luminescence detected at each well.
In addition, the cytotoxic activity under each condition was calculated by subtracting the survival rate in a combination of pemetrexed of each treatment concentration and each example compound of each treatment concentration, from 100%.

Row | IC50 [1] [nM] | IC50 [2] [nM] | SMILES | Bliss Score (Max) [3] [%] | HSA Score (MAX) [3] [%]
1 | 0.25 | 11 | Nc1c(-c2ccc(F)c3[nH]ncc23)c2cc(C3CC3)c3ccccc3c2[nH]c1=O [Compound B22, 3-Amino-6-cyclopropyl-4-(7-fluoro-1H-indazol-4-yl)-1H-benzo[h]quinolin-2-one] | 56 | 64
2 | 0.26 | 8.3 | CCc1cc2c(-c3ccc(F)c4[nH]ncc34)c(N)c(=O)[nH]c2c2ccccc12 [Compound B23, 3-Amino-6-ethyl-4-(7-fluoro-1H-indazol-4-yl)-1H-benzo[h]quinolin-2-one] | 58 | 63
3 | 0.62 | 16 | Nc1c(-c2ccc(F)c3[nH]ncc23)c2cc(C3CCC3)c3ccccc3c2[nH]c1=O [Compound B24, 3-Amino-6-cyclobutyl-4-(7-fluoro-1H-indazol-4-yl)-1H-benzo[h]quinolin-2-one] | 52 | 60
4 | 0.26 | 3 | Nc1c(-c2ccc(F)c3[nH]ncc23)c2ccc3ccccc3c2[nH]c1=O [Compound B32, 3-Amino-4-(7-fluoro-1H-indazol-4-yl)-1H-benzo[h]quinolin-2-one] | 52 | 63
5 | 0.86 | 33 | Nc1c(-c2ccc(F)c3[nH]ncc23)c2cc(Cl)c3ccccc3c2[nH]c1=O [Compound B34, 3-Amino-6-chloro-4-(7-fluoro-1H-indazol-4-yl)-1H-benzo[h]quinolin-2-one] |  | 
6 | 0.44 | 3.7 | Nc1c(-c2ccc(F)c3[nH]ncc23)c2cc(F)c3ccccc3c2[nH]c1=O [Compound B35, 3-Amino-6-fluoro-4-(7-fluoro-1H-indazol-4-yl)-1H-benzo[h]quinolin-2-one] | 61 | 70
7 | 0.75 | 6 | Nc1c(-c2ccc(Cl)c3[nH]ncc23)c2cc(C3CC3)c3ccccc3c2[nH]c1=O [Compound B37, 3-Amino-4-(7-chloro-1H-indazol-4-yl)-6-cyclopropyl-1H-benzo[h]quinolin-2-one] | 31 | 34
8 | 1.1 | 10 | Nc1c(-c2cccc3[nH]ncc23)c2cc(C3CC3)c3ccc(F)cc3c2[nH]c1=O [Compound B47, 3-Amino-6-cyclopropyl-9-fluoro-4-(1H-indazol-4-yl)-1H-benzo[h]quinolin-2-one] | 54 | 62
9 | 2.5 | 18 | Cl.Nc1c(-c2cccc3[nH]ncc23)c2cc(C3CC3)c3cc(F)ccc3c2[nH]c1=O [Compound B48, 3-Amino-6-cyclopropyl-8-fluoro-4-(1H-indazol-4-yl)-1H-benzo[h]quinolin-2-one; hydrochloride] | 66 | 70
10 | 6.4 | 6.2 | Nc1c(-c2cccc3[nH]ncc23)c2cc(C3CC3)c3ccccc3c2[nH]c1=O [Compound B49, 3-amino-6-cyclopropyl-4-(1H-indazol-4-yl)-1H-benzo[h]quinolin-2-one] | 86 | 84
11 | < 0.17 | 2 | Nc1c(-c2ccc(F)c3[nH]ncc23)c2cc(Br)c3ncccc3c2[nH]c1=O [Compound C1, 3-amino-6-bromo-4-(7-fluoro-1H-indazol-4-yl)-1H-1,7-phenanthrolin-2-one] | 59 | 71
12 | 0.15 | 1.3 | COc1cc2c(-c3ccc(F)c4[nH]ncc34)c(N)c(=O)[nH]c2c2cccnc12 [Compound C4, 3-Amino-4-(7-fluoro-1H-indazol-4-yl)-6-methoxy-1H-1,7-phenanthrolin-2-one] | 61 | 62
13 | 0.2 | 7.4 | Nc1c(-c2ccc(F)c3[nH]ncc23)c2cc(F)c3ncccc3c2[nH]c1=O [Compound C64, 3-Amino-6-fluoro-4-(7-fluoro-1H-indazol-4-yl)-1H-1,7-phenanthrolin-2-one] | 45 | 54

The next lines start with the compound.

Row | SMILES | IC50 [1] [nM] | IC50 [2] [nM] | Bliss Score (Max) [3] [%] | HSA Score (MAX) [3] [%]
14 | Nc1c(-c2c(F)ccc3[nH]ncc23)c2cc(C3CC3)c3ncccc3c2[nH]c1=O (racemic) [Compound C156, 3-Amino-6-cyclopropyl-4-(5-fluoro-1H-indazol-4-yl)-1H-1,7-phenanthrolin-2-one] | 6.2 | 2.1 | 51 | 59
15 | Nc1c(-c2ccc(Cl)c3[nH]ncc23)c2cc(Cl)ccc2[nH]c1=O [Compound A59, 3-Amino-6-chloro-4-(7-chloro-1H-indazol-4-yl)-1H-quinolin-2-one] | 0.6 | 5.8 | 55 | 58
16 | Nc1c(-c2cccc(O)c2)c2cc(C3CC3)c3ccccc3c2[nH]c1=O [Compound B3, 3-Amino-6-cyclopropyl-4-(3-hydroxyphenyl)-1H-benzo[h]quinolin-2-one] | 0.52 | 7.3 | 78 | 77
17 | Nc1c(-c2cccc3[nH]ncc23)c2ccc3ccccc3c2[nH]c1=O [Compound B46, 3-Amino-4-(1H-indazol-4-yl)-1H-benzo[h]quinolin-2-one] | 6.4 | 6.3 | 52 | 65
18 | Nc1c(-c2cccc(F)c2)c2ccc3ccccc3c2[nH]c1=O [Compound B50, 3-Amino-4-(3-fluorophenyl)-1H-benzo[h]quinolin-2-one; hydrochloride] | 210 | 750 |  | 
19 | CCOc1cc2c(-c3ccc(F)c4[nH]ncc34)c(N)c(=O)[nH]c2c2cccnc12 [Compound C8, 3-Amino-6-ethoxy-4-(7-fluoro-1H-indazol-4-yl)-1H-1,7-phenanthrolin-2-one] | 0.3 | 1.6 | 68 | 78
20 | CC(C)Oc1cc2c(-c3ccc(F)c4[nH]ncc34)c(N)c(=O)[nH]c2c2cccnc12 [Compound C13, 3-Amino-4-(7-fluoro-1H-indazol-4-yl)-6-propan-2-yloxy-1H-1,7-phenanthrolin-2-one] | 0.15 | 1.4 | 62 | 66
21 | COc1cc2c(-c3cc(F)c(F)c4[nH]ncc34)c(N)c(=O)[nH]c2c2cccnc12 [Compound C65, 3-Amino-4-(6,7-difluoro-1H-indazol-4-yl)-6-methoxy-1H-1,7-phenanthrolin-2-one] | 0.083 | 3.2 | 53 | 58
22 | Nc1c(-c2cccc3[nH]ncc23)c2cc(Cl)c3ncccc3c2[nH]c1=O [Compound C79, 3-Amino-6-chloro-4-(1H-indazol-4-yl)-1H-1,7-phenanthrolin-2-one] | 0.3 | 11 |  | 
23 | Nc1c(-c2cccc(O)c2)c2ccc3ncccc3c2[nH]c1=O [Compound C184, 3-Amino-4-(3-hydroxyphenyl)-1H-1,7-phenanthrolin-2-one; hydrobromide] | < 4.6 | 10 |  | 
24 | Nc1c(-c2cccc3[nH]ncc23)c2ccc3ncccc3c2[nH]c1=O [Compound C186, 3-Amino-4-(1H-indazol-4-yl)-1H-1,7-phenanthrolin-2-one] | 3.9 | 6.8 |  | 
